We go through 25 compounds from PubChem BioAssay AID2743 (NMMLSC, 2010).

The subject of assay [1] is S. cerevisiae AGP1-GFP strain, flow cytometry GFP, 3 h. Description: potency of AGP1-GFP expression modulators in yeast, dose response, cell-based, flow cytometry, S. cerevisiae, MLPCN hits (AID 2743). Background: Flow cytometry measures light scatter and fluorescence of single cells or particles in a stream.
Assay in assay [2]: as above
The note with it: S. cerevisiae AGP1-GFP strain, flow cytometry GFP, 3 h; at 33 µM (top of the series).

Broadly, the EC50 is the concentration needed to bring the measured effect to its halfway point.

Active and inactive are the calls of the source.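 The calls were made as follows: active = fitted half-maximal concentration for change in GFP expression of 33 µM or less; inactive = the rest.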

Regarding `COc1ccc(N2CCN(C(=O)c3ccc(Br)cc3)CC2)c([N+](=O)[O-])c1`, the EC50 in assay [1] is 3840 nM.

Consider `CC(C)(C)C(=O)C(Cl)C(=O)Nc1ccccc1` (stereo unspecified), for which the EC50 in assay [1] was 570 nM.

`CCCOc1ccc(C(=O)NNC(=S)NC(=O)CC)cc1`: in assay [1], the EC50 is 1940 nM.

As to `COC(=O)CCS(=O)(=O)c1nc(-c2ccccc2)cc(C(F)(F)F)n1`, the EC50 in assay [1] is 943 nM.

On to `CN1CCN(C(=O)c2cc(COc3c(F)cccc3F)on2)CC1c1ccccc1` (stereo unspecified), for which the half-maximal effective concentration (EC50) in assay [1] was 3890 nM.

For `O=C(OCC(=O)N1CCN(C(=O)c2ccco2)CC1)c1cc(-c2ccccc2)nc2ccccc12`, the GFP fluorescence (kMESF) in assay [2] was 43.7 kMESF (inactive). In addition, in assay [1], the EC50 was 2830 nM.

In the case of `O=C(C#Cc1cccc([N+](=O)[O-])c1)c1ccccc1`, the concentration for a half-maximal effect (EC50) in assay [1] is 305 nM.

As for `CCN(CC)C(=O)Oc1ccnc2cc(Cl)ccc12`, in assay [1], the EC50 was 7220 nM.

As to `CCOC(=O)CS(=O)(=O)c1nc(-c2ccccc2)cc(C(F)(F)F)n1`, the concentration for a half-maximal effect (EC50) in assay [1] is 1380 nM.

For `CC(=O)c1ccc(N2CCN(C(=O)c3ccc(Br)cc3)CC2)c(F)c1`, the 50% effective concentration (EC50) in assay [1] is 6920 nM.

Take `O=C(Oc1ccnc2cc(Cl)ccc12)N1CCCCCC1`: the EC50 in assay [1] was 3860 nM.

Regarding `CS(=O)(=O)c1nc(-c2ccccc2)cc(C(F)(F)F)n1`, the 50% effective concentration (EC50) in assay [1] was 653 nM.

`CS(=O)(=O)c1nc(-c2cccs2)cc(C(F)(F)F)n1`: the EC50 in assay [1] was 872 nM.

For the compound `Cc1cccc(C)c1NC(=O)C(Cl)C(=O)c1ccccc1` (stereo unspecified), the EC50 in assay [1] is 781 nM.

Regarding `CNc1nc(N)c([N+](=O)[O-])c(Nc2cccc(F)c2)n1`, the EC50 in assay [1] was 9390 nM.

Consider `COc1ccccc1C(=O)NNC(=S)NC(=O)c1cccs1`, for which the GFP fluorescence (kMESF) in assay [2] was 48 kMESF (inactive).

Turning to `CC(=O)CSc1ncnc2c1cnn2-c1ccccc1`, the GFP fluorescence (kMESF) in assay [2] was 38.5 kMESF (inactive).

In the case of `Cc1ccc(S(=O)(=O)/N=C(\Sc2ccccc2)c2ccccc2)cc1`, the EC50 in assay [1] was 822 nM.

On to `O=C(O)c1ccc(COc2ccccc2C=C2C(=O)c3ccccc3C2=O)cc1`, for which the GFP fluorescence (kMESF) in assay [2] is 32.6 kMESF (inactive).

On to `CCOC(=O)CCS(=O)(=O)c1nc(-c2ccccc2)cc(C(F)(F)F)n1`, for which the EC50 in assay [1] is 941 nM.

In the case of `CC(C)[C@]1(c2ccc(Cl)cc2)ON(c2ccccc2C(F)(F)F)C1=O`, in assay [2], the GFP fluorescence (kMESF) is 39.3 kMESF (inactive).

Consider `O=C(Nc1cccc(C(F)(F)F)c1)Oc1ccc(Cl)c2cccnc12`, for which the GFP fluorescence (kMESF) in assay [2] was 31.6 kMESF (inactive).

Regarding `O=C(OCC(=O)N1CCN(C(=O)c2ccco2)CC1)c1cc(-c2cccc(Br)c2)nc2ccccc12`, in assay [1], the 50% effective concentration (EC50) was 2810 nM.

`O=c1[nH]c(-c2ccccn2)nc(C(F)(F)F)c1Br`: the GFP fluorescence (kMESF) in assay [2] is 36.9 kMESF (inactive).

Consider `CS(=O)(=O)N1N=C(c2ccccc2)CC1c1ccc2c(c1)OCO2` (stereo unspecified), for which the GFP fluorescence (kMESF) in assay [2] is 126 kMESF (inactive).
